Data from patent publication US20110045076A1, “LINEAR ORDER RELEASE POLYMER” (priority 2008, published 2011).

Legend:
Assay type in all cases: physicochemical
[1] = Release of Tenofovir from Tecoflex EG-80A and EG-85A small rings with and without PEG2000; settings: Tecoflex EG-80A and EG-85A matrices, 50 mg/g, 5% w/w PEG, pH 4.2 acetate buffer, 15 days
Procedure: Incorporation of Tenofovir and PEG2000 in Tecoflex EG-80A and EG-85A matrices: Homogenous distribution of Tenofovir and PEG2000 in Tecoflex EG-80A or EG-85A_matrices were achieved by solvent casting. Tenofovir (500 mg) with or without PEG2000 (500 mg) were dissolved in 75:25 mixture of dichloromethane and tetrahydrofuran. About 75% of the solvent was removed under reduced pressure and the viscous solution was poured into a silanized crystallization flask which was further dried under air at a flow rate of 4 L/min for 2-3 days. The Tenofovir incorporated polymer films thus obtained were cut into small pieces and further dried under high vacuum until constant weight was achieved.
Solid cross-sectional rods were obtained by extrusion of polymer films obtained in the above step at 155-165° C. using a lab scale extruder (CSI Max Mixing Extruder CS-194A, Custom Scientific Instrument Inc., Easton, Pa.). Small rings were fabricated by joining the ends of rods of approximately 6 cm in length. The release profile of Tenofovir was measured from Tenofovir loaded small rings using pH 4.2 25 mM acetate buffer (osmolarity adjusted to 310 mOsm/kg using NaCl, 0.02% sodium azide) at 37° C. and 60 rpm. […] HPLC analyses were performed and the cumulative release was calculated by integrating the area under the curve using Kaleidagraph software (Synergy Software, Reading, Pa.). […]

[2] = Release of Tenofovir from Tecoflex EG-93A matrices with PEG2000 with and without salts; settings: 5% w/w PEG
Procedure: Incorporation of Tenofovir and PEG2000 and salts in EG-93A matrices: Homogenous distribution of Tenofovir, PEG2000 with and without salts in Tecoflex EG-93A_matrices were achieved by solvent casting. Tenofovir (250 mg), PEG2000 (250 mg (5% w/w)) and salts (NaCl=50 mg (1% w/w) or 125 mg (2.5% w/w) or CaCl2=125 mg (2.5% w/w)) were dispersed in 75:25 mixture of dichloromethane and tetrahydrofuran followed by sonication for 30 minutes. About 75% of the solvent was removed under reduced pressure and the viscous solution was poured into a silanized crystallization flask which was further dried under air at a flow rate of 4 L/min for 2-3 days. The Tenofovir incorporated polymer films thus obtained were cut into small pieces and further dried under high vacuum until constant weight was achieved. About 1.2 g of the polymer film pieces were taken in a 20 mL scintillation vial which was incubated at 210° C. for about 5-6 minutes to allow the polymer pieces to melt and fuse to form a continuous film in the bottom of the vial. Then 5 mL of sink (25 mM pH 4.2 buffer, osmolarity adjusted to 310 mOsm/kg with NaCl, and 0.02% sodium azide) was added. The sink was replaced with fresh buffer every 24±0.5 h for 15 days. HPLC analyses were performed and the cumulative release was calculated by integrating the area under the curve using Kaleidagraph software (Synergy Software, Reading, Pa.). […]

[3] = In vitro release of AMP from PEG2000-containing PU rods; settings: pH 4.2 acetate buffer; for release profile: 37° C.
Procedure: Incorporation of AMP in PU matrix: Homogenous distribution of AMP and PEG2000 in the PU matrix was achieved by solvent casting. AMP (500 mg), PEG2000 (500 mg (5% w/w), 1000 mg (10% w/w) and 1500 mg (15% w/w)) and PU (added to make the total weight of PEG+AMP+PU mixture to 10 g) were dissolved in 75:25 mixture of dichloromethane and tetrahydrofuran. About 75% of the solvent was removed under reduced pressure and the viscous solution of PU, AMP and PEG2000 was poured into a silanized crystallization flask which was further dried under air at a flow rate of 4 L/min for 2-3 days. The […] incorporated PU films thus obtained were cut into small pieces and further dried under high vacuum until constant weight was achieved.
Extrusion of PEG2000 and AMP loaded solid cross-sectional PU: Extrusion was conducted at 165-175° C. into solid cross-sectional rods using a lab scale extruder (CSI Max Mixing Extruder CS-194A, Custom Scientific Instrument Inc., Easton, Pa.). The extruded and molten polymer output from the extruder was immediately fed to an aluminum mold (4.3 mm diameter, 25 cm length, previously spray coated with mold release agent) maintained at 120° C. The mold was cooled to below 80° C. and opened carefully without stretching the PU rod. The release profile of AMP was measured from PU rods using pH 4.2 25 mM acetate buffer (osmolarity adjusted to 310 mOsm/kg using NaCl, 0.02% sodium azide) at 37° C. and 60 rpm. About 2 cm length segments were cut from the solid cross-sectional AMP loaded PU rods. The dimensions (length and diameter) and weight of each segment were recorded. The sink was replaced with fresh buffer every 24±0.5 h for 10 days. HPLC analyses were performed and the cumulative release was calculated by integrating the area under the curve using Kaleidagraph software (Synergy Software, Reading, Pa.). The release study for each loading was performed on triplicate samples. […] A burst release is obtained in all PEG-PU compositions that is proportional to the PEG concentration.

Compound | effect of PEG incorporation on release [1] | release profile ([2]; 2.5 w/w CaCl2) | release profile ([2]; 2.5 w/w NaCl) | release profile ([3]; 5% w/w PEG in PU) | release profile ([3]; 10% w/w PEG in PU) | release profile ([3]; 15% w/w PEG in PU) | effect of PEG incorporation on release ([3]; PEG-PU rods vs PU)
C[C@H](Cn1cnc2c(N)ncnc21)OCP(=O)(O)O [Tenofovir, ({[(2R)-1-(6-amino-9H-purin-9-yl)propan-2-yl]oxy}methyl)phosphonic acid] | increases the overall amount of drug released per day | nearly zero-order release | nearly zero-order release | – | – | – | –
Nc1ncnc2c1ncn2[C@@H]1O[C@H](COP(=O)(O)O)[C@@H](O)[C@H]1O [AMP, Adenosine Monophosphate] | – | – | – | zero order | diffusion limited | diffusion limited | increases the overall amount of drug released per day
